Data as given in ChEMBL document CHEMBL1909046, “DrugMatrix in vitro pharmacology data”.

Tests used:
Progesterone receptor = target: T1, Progesterone receptor (Bos taurus, UniProt Q690N0); assay: DRUGMATRIX: Progesterone radioligand binding (ligand: [3H] R-5020); assay type: tissue-based, Uterus; details: Not Active = under 50% inhibition at 10 µM
T1 sequence (Q690N0 whole entry): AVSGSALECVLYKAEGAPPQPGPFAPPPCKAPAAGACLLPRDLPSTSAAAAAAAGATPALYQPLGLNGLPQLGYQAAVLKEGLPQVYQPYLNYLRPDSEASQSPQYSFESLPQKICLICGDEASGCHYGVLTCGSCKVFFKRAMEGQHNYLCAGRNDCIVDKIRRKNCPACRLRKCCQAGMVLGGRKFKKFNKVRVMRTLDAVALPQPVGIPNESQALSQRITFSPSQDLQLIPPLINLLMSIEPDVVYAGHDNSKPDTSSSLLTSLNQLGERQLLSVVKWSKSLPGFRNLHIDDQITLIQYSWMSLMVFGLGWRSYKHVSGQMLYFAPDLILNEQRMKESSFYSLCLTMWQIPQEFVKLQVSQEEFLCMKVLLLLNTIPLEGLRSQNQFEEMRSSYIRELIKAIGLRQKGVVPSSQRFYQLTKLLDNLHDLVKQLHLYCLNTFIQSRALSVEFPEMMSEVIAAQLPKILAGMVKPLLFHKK

Cytochrome P450 2A6 = target: T2, Cytochrome P450 2A6 (Homo sapiens, UniProt P11509); details: bti-tn-5b1-4; further: in other assays of this panel Not Active means under 50% inhibition at 10 µM
T2 sequence (P11509 whole entry): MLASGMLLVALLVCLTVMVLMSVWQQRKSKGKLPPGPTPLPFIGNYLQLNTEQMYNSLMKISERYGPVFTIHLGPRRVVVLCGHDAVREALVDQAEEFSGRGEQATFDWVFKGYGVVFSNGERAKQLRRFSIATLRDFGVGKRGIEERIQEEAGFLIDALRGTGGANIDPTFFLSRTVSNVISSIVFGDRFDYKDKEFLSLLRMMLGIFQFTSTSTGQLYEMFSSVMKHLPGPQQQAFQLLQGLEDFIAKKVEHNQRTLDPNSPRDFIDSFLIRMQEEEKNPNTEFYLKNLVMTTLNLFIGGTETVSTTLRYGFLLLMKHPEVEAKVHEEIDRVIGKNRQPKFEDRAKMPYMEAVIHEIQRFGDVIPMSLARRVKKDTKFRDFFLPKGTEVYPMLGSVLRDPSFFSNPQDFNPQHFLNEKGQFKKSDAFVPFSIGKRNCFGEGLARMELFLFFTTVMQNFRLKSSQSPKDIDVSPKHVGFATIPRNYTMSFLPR

[1] = target: T3, Alpha-1B adrenergic receptor (Rattus norvegicus, UniProt P15823); assay: DRUGMATRIX: Alpha-1B adrenergic receptor radioligand binding (ligand: prazosin); assay type: cell membranes, Wistar, Liver, Membrane; details: Not Active = under 50% inhibition at 10 µM
T3 sequence (P15823 whole entry): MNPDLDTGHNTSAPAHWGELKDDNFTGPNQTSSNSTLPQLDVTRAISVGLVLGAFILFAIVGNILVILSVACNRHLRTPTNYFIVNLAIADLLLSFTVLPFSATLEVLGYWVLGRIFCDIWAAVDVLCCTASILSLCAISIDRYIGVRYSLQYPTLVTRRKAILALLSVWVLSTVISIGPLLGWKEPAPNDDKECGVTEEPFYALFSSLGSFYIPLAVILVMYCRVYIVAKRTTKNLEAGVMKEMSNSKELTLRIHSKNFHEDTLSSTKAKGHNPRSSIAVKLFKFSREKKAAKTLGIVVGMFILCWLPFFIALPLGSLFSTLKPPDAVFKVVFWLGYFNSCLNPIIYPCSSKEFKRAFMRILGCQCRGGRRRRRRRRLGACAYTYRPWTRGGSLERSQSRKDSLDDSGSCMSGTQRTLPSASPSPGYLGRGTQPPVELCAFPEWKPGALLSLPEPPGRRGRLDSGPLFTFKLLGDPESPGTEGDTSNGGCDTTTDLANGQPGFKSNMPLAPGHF

Cytochrome P450 1A2 = target: T4, Cytochrome P450 1A2 (Homo sapiens, UniProt P05177); details: bti-tn-5b1-4; further: in other assays of this panel Not Active means under 50% inhibition at 10 µM
T4 sequence (P05177 whole entry): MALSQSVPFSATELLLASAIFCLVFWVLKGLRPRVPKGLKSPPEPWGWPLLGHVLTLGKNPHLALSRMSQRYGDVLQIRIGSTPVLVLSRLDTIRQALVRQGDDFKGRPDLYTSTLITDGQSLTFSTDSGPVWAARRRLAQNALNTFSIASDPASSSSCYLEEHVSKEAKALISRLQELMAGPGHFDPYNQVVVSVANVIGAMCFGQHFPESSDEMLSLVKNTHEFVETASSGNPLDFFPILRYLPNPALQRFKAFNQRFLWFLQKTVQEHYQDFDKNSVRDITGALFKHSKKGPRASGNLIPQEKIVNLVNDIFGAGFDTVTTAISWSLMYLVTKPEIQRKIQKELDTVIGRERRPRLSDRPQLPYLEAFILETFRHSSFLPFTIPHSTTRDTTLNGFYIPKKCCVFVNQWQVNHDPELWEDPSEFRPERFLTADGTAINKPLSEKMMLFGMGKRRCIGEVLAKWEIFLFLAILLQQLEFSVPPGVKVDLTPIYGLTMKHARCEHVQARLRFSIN

[2] = target: 5-hydroxytryptamine receptor 2B (Homo sapiens, UniProt P41595); assay type: cell membranes, CHO-K1, Membrane; details: cho-k1; further: in other assays of this panel Not Active means under 50% inhibition at 10 µM
[3] = target: Kappa-type opioid receptor (Homo sapiens, UniProt P41145); assay: DRUGMATRIX: Opiate kappa (OP2, KOP) radioligand binding (ligand: [3H] Diprenorphine); assay type: cell membranes, HEK293, Membrane; details: Not Active = under 50% inhibition at 10 µM
Kappa-type opioid receptor, sequence (P41145 whole entry): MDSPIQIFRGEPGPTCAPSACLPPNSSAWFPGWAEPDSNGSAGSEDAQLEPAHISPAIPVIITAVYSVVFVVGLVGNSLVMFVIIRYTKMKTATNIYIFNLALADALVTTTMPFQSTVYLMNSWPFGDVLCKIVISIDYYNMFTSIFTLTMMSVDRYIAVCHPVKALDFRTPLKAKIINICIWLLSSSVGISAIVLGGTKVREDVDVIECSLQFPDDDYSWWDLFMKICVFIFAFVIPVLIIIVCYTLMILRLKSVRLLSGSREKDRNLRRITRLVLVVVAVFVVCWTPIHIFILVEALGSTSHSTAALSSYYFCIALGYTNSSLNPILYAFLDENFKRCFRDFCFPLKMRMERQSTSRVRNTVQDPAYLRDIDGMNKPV

5-hydroxytryptamine receptor 2B, sequence (P41595 whole entry): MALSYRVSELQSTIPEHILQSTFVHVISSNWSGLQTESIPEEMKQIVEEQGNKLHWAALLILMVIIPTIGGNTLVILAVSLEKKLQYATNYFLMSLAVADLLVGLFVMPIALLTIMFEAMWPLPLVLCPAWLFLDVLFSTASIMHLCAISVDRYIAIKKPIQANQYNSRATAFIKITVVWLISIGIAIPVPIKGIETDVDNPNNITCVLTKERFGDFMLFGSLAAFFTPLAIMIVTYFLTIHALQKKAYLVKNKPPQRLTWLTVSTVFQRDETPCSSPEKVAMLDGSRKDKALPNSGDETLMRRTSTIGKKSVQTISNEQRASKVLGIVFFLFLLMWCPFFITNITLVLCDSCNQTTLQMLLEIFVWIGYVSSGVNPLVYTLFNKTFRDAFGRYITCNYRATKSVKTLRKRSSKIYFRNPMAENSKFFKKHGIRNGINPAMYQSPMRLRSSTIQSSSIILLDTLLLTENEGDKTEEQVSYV

OC[C@@H](O)[C@@H](O)[C@H](O)[C@H](O)CO [MANNITOL]
IC50 (Progesterone receptor): Not Active | IC50 (Cytochrome P450 2A6): Not Active | Ki (Cytochrome P450 2A6): Not Active | IC50 [1]: Not Active | IC50 (Cytochrome P450 1A2): Not Active | Ki (Cytochrome P450 1A2): Not Active | IC50 [2]: Not Active

CCN(CC)C(=S)SSC(=S)N(CC)CC
IC50 (Progesterone receptor): Not Active | IC50 (Cytochrome P450 2A6): Not Active | Ki (Cytochrome P450 2A6): Not Active | Ki [3]: 2.44 µM | IC50 ([3]; read-out: IC50): 6.1 µM | IC50 [1]: Not Active

C[N+]1(C)[C@@H]2C[C@@H](OC(=O)[C@H](CO)c3ccccc3)C[C@H]1[C@@H]1O[C@@H]12.[Br-] [METHSCOPOLAMINE BROMIDE]
IC50 (Progesterone receptor): Not Active | IC50 (Cytochrome P450 2A6): Not Active | Ki (Cytochrome P450 2A6): Not Active | IC50 [1]: Not Active | IC50 (Cytochrome P450 1A2): Not Active | Ki (Cytochrome P450 1A2): Not Active | IC50 [2]: Not Active

CO[C@@H]1[C@@H](OC)[C@H](C)[C@@](O)(CC(=O)O)O[C@H]1[C@H](C)[C@H]1O[C@@]2(CC[C@@](C)([C@H]3CC[C@@](C)([C@@H]4O[C@@H]([C@H]5O[C@](C)(O)[C@H](C)C[C@@H]5C)C[C@@H]4O[C@@H]4C[C@H](OC)[C@@H](OC)[C@H](C)O4)O3)O2)C[C@H](O)[C@H]1C.N [MADURAMICIN]
IC50 (Progesterone receptor): Not Active | IC50 (Cytochrome P450 2A6): Not Active | Ki (Cytochrome P450 2A6): Not Active | IC50 ([3]; hek293): Not Active | IC50 (Cytochrome P450 1A2): Not Active | Ki (Cytochrome P450 1A2): Not Active | IC50 [2]: Not Active

Cc1cccc(C)c1NC(=O)C(C)N (stereo unspecified) [TOCAINIDE]
IC50 (Cytochrome P450 2A6): Not Active | Ki (Cytochrome P450 2A6): Not Active | IC50 ([3]; hek293): Not Active | IC50 [1]: Not Active | IC50 (Cytochrome P450 1A2): Not Active | Ki (Cytochrome P450 1A2): Not Active | IC50 [2]: Not Active

Cc1cc2c(s1)Nc1ccccc1N=C2N1CCN(C)CC1 [OLANZAPINE]
IC50 (Progesterone receptor): Not Active | IC50 (Cytochrome P450 2A6): Not Active | Ki (Cytochrome P450 2A6): Not Active | IC50 ([3]; hek293): Not Active | IC50 (Cytochrome P450 1A2): Not Active | Ki (Cytochrome P450 1A2): Not Active

O=C1CC[C@@]2(O)[C@H]3Cc4ccc(O)c5c4[C@@]2(CCN3CC2CC2)[C@H]1O5 [NALTREXONE]
IC50 (Progesterone receptor): Not Active | IC50 (Cytochrome P450 2A6): Not Active | Ki (Cytochrome P450 2A6): Not Active | IC50 [1]: Not Active | IC50 (Cytochrome P450 1A2): Not Active | Ki (Cytochrome P450 1A2): Not Active | IC50 [2]: Not Active

CN1C[C@H](CNC(=O)OCc2ccccc2)C[C@@H]2c3cccc4c3c(cn4C)C[C@H]21 [METERGOLINE]
IC50 (Progesterone receptor): Not Active | IC50 (Cytochrome P450 2A6): Not Active | Ki (Cytochrome P450 2A6): Not Active | IC50 ([3]; hek293): Not Active | IC50 ([1]; read-out: IC50): 0.262 µM | Ki ([1]; read-out: Ki): 0.145 µM | IC50 (Cytochrome P450 1A2): Not Active | Ki (Cytochrome P450 1A2): Not Active

O=[As][O-].[Na+] [SODIUM ARSENITE]
IC50 (Progesterone receptor): Not Active | IC50 (Cytochrome P450 2A6): Not Active | Ki (Cytochrome P450 2A6): Not Active | IC50 [1]: Not Active | IC50 (Cytochrome P450 1A2): Not Active | Ki (Cytochrome P450 1A2): Not Active | IC50 [2]: Not Active

CC(Cl)(Cl)Cl [TRICHLOROETHANE]
IC50 (Progesterone receptor): Not Active | IC50 (Cytochrome P450 2A6): Not Active | Ki (Cytochrome P450 2A6): Not Active | IC50 [1]: Not Active | IC50 (Cytochrome P450 1A2): Not Active | Ki (Cytochrome P450 1A2): Not Active | IC50 [2]: Not Active

CCN(CC)N=O [N-NITROSODIETHYLAMINE]
IC50 (Progesterone receptor): Not Active | IC50 (Cytochrome P450 2A6): Not Active | Ki (Cytochrome P450 2A6): Not Active | IC50 [1]: Not Active | IC50 (Cytochrome P450 1A2): Not Active | Ki (Cytochrome P450 1A2): Not Active | IC50 [2]: Not Active

LEAD(IV) ACETATE
IC50 (Progesterone receptor): Not Active | Ki (Progesterone receptor): Not Active | IC50 (Cytochrome P450 2A6): Not Active | Ki (Cytochrome P450 2A6): Not Active | IC50 [1]: Not Active | Ki [1]: Not Active | IC50 (Cytochrome P450 1A2): Not Active | Ki (Cytochrome P450 1A2): Not Active | IC50 [2]: Not Active | Ki [2]: Not Active

CN(C)CCC=C1c2ccccc2COc2ccccc21 [DOXEPIN]
IC50 (Progesterone receptor): Not Active | IC50 (Cytochrome P450 2A6): Not Active | Ki (Cytochrome P450 2A6): Not Active | IC50 ([3]; hek293): Not Active | IC50 (Cytochrome P450 1A2): Not Active | Ki (Cytochrome P450 1A2): Not Active

Oc1ccc(/C=C/c2cc(O)cc(O)c2)cc1 [RESVERATROL]
IC50 (Cytochrome P450 2A6): Not Active | Ki (Cytochrome P450 2A6): Not Active | IC50 [1]: Not Active | IC50 [2]: Not Active

C1CCN2C[C@@H]3C[C@@H](CN4CCCC[C@@H]34)[C@H]2C1 [SPARTEINE]
IC50 (Progesterone receptor): Not Active | IC50 [1]: Not Active | IC50 [2]: Not Active

CNCCCC12CCC(c3ccccc31)c1ccccc12 [MAPROTILINE]
IC50 (Progesterone receptor): Not Active | IC50 ([3]; hek293): Not Active
